Read-outs that look alike come from different tables or passages of the source.
Tests used:
Assay in all cases: Test C pre/postemergence
Assay type in all cases: in vivo
[1] = test system: morningglory (Ipomoea coccinea); settings: Ipomoea; for pest or weed control at 31 g/ha: 31 g ai/ha; for pest or weed control at 62 g/ha: 62 g ai/ha; for pest or weed control at 125 g/ha: 125 g ai/ha; for pest or weed control at 250 g/ha: 250 g ai/ha
Outline: (§1)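 Applications: preemergence onto seeded soil and postemergence onto 1- to 4-leaf seedlings, compound carried in non-phytotoxic solvent plus surfactant. Kept in greenhouse 12 to 14 days. Scored visually relative to untreated controls, 0 (no effect) to 100 (complete control).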

[2] = test system: woolly cupgrass (Eriochloa villosa); settings: Eriochloa villosa; for pest or weed control at 31 g/ha: 31 g ai/ha; for pest or weed control at 62 g/ha: 62 g ai/ha; for pest or weed control at 125 g/ha: 125 g ai/ha; for pest or weed control at 250 g/ha: 250 g ai/ha
Outline: as §1

[3] = test system: velvetleaf (Abutilon theophrasti); settings: Abutilon theophrasti; for pest or weed control at 31 g/ha: 31 g ai/ha; for pest or weed control at 62 g/ha: 62 g ai/ha; for pest or weed control at 125 g/ha: 125 g ai/ha; for pest or weed control at 250 g/ha: 250 g ai/ha
Outline: as §1

[4] = test system: common (oilseed) sunflower (Helianthus annuus); settings: Helianthus annuus, pre-emergence, Preemergence, read-out: Plant response rating, Sunflower
Outline: as §1

[5] = test system: common ragweed (Ambrosia elatior); settings: Ambrosia artemisiifolia; for pest or weed control at 31 g/ha: 31 g ai/ha; for pest or weed control at 62 g/ha: 62 g ai/ha; for pest or weed control at 125 g/ha: 125 g ai/ha; for pest or weed control at 250 g/ha: 250 g ai/ha
Outline: as §1

[6] = test system: cocklebur (Xanthium strumarium); settings: Xanthium strumarium; for pest or weed control at 31 g/ha: 31 g ai/ha; for pest or weed control at 62 g/ha: 62 g ai/ha; for pest or weed control at 125 g/ha: 125 g ai/ha; for pest or weed control at 250 g/ha: 250 g ai/ha
Outline: as §1

[7] = post-emergence, Postemergence, scale 0 to 100 (0 no effect, 100 complete control), read-out: Morningglory plant response rating
[8] = pre-emergence, Preemergence, scale 0 to 100, 0 no effect, 100 complete control, read-out: Plant response rating, Morningglory
[9] = pre-emergence, Preemergence, scale 0 to 100, read-out: Plant response rating, Morningglory
[10] = post-emergence, Postemergence, scale 0 to 100 (0 no effect, 100 complete control), read-out: Cupgrass, Woolly plant response rating
[11] = pre-emergence, Preemergence, scale 0 to 100, 0 no effect, 100 complete control, read-out: Plant response rating, Cupgrass, Woolly
[12] = pre-emergence, Preemergence, scale 0 to 100, read-out: Plant response rating, Cupgrass, Woolly
[13] = post-emergence, Postemergence, scale 0 to 100 (0 no effect, 100 complete control), read-out: Velvetleaf plant response rating
[14] = pre-emergence, Preemergence, scale 0 to 100, 0 no effect, 100 complete control, read-out: Plant response rating, Velvetleaf
[15] = pre-emergence, Preemergence, scale 0 to 100, read-out: Plant response rating, Velvetleaf
[16] = post-emergence, Postemergence, scale 0 to 100 (0 no effect, 100 complete control), read-out: Ragweed plant response rating
[17] = pre-emergence, Preemergence, scale 0 to 100, 0 no effect, 100 complete control, read-out: Plant response rating, Ragweed
[18] = pre-emergence, Preemergence, scale 0 to 100, read-out: Plant response rating, Ragweed
[19] = post-emergence, Postemergence, scale 0 to 100 (0 no effect, 100 complete control), read-out: Cocklebur plant response rating
[20] = pre-emergence, Preemergence, scale 0 to 100, 0 no effect, 100 complete control, read-out: Plant response rating, Cocklebur
[21] = pre-emergence, Preemergence, scale 0 to 100, read-out: Plant response rating, Cocklebur

CCOC(=O)c1nc(C2CC2)nc(N)c1F [Compound 30]
pest or weed control at 31 g/ha ([1]; post-emergence, Postemergence, read-out: Plant response rating (scale of 0 to 100), Morningglory): 90%
pest or weed control at 62 g/ha [1, 7]: 90%
pest or weed control at 125 g/ha [1, 7]: 95%
pest or weed control at 250 g/ha ([1]; post-emergence, Postemergence, scale 0 to 100, read-out: Plant response rating, Morningglory): 95%
pest or weed control at 31 g/ha [1, 8]: 0%
pest or weed control at 62 g/ha [1, 8]: 85%
pest or weed control at 125 g/ha [1, 9]: 90%
pest or weed control at 250 g/ha [1, 9]: 100%
pest or weed control at 31 g/ha ([2]; post-emergence, Postemergence, read-out: Plant response rating (scale of 0 to 100), Cupgrass, Woolly): 0%
pest or weed control at 62 g/ha [2, 10]: 0%
pest or weed control at 125 g/ha [2, 10]: 0%
pest or weed control at 250 g/ha ([2]; post-emergence, Postemergence, scale 0 to 100, read-out: Plant response rating, Cupgrass, Woolly): 40%
pest or weed control at 31 g/ha [2, 11]: 0%
pest or weed control at 62 g/ha [2, 11]: 5%
pest or weed control at 125 g/ha [2, 12]: 45%
pest or weed control at 250 g/ha [2, 12]: 50%
pest or weed control at 31 g/ha ([3]; post-emergence, Postemergence, read-out: Plant response rating (scale of 0 to 100), Velvetleaf): 10%
pest or weed control at 62 g/ha [3, 13]: 10%
pest or weed control at 125 g/ha [3, 13]: 60%
pest or weed control at 250 g/ha ([3]; post-emergence, Postemergence, scale 0 to 100, read-out: Plant response rating, Velvetleaf): 60%
pest or weed control at 31 g/ha [3, 14]: 0%
pest or weed control at 62 g/ha [3, 14]: 10%
pest or weed control at 125 g/ha [3, 15]: 15%
pest or weed control at 250 g/ha [3, 15]: 50%
pest or weed control at 31 g/ha ([4]; 31 g ai/ha, scale 0 to 100, 0 no effect, 100 complete control): 20%
pest or weed control at 62 g/ha ([4]; 62 g ai/ha, scale 0 to 100, 0 no effect, 100 complete control): 80%
pest or weed control at 125 g/ha ([4]; 125 g ai/ha, scale 0 to 100): 90%
pest or weed control at 250 g/ha ([4]; 250 g ai/ha, scale 0 to 100): 90%
pest or weed control at 31 g/ha ([5]; post-emergence, Postemergence, read-out: Plant response rating (scale of 0 to 100), Ragweed): 60%
pest or weed control at 62 g/ha [5, 16]: 80%
pest or weed control at 125 g/ha [5, 16]: 85%
pest or weed control at 250 g/ha ([5]; post-emergence, Postemergence, scale 0 to 100, read-out: Plant response rating, Ragweed): 90%
pest or weed control at 31 g/ha [5, 17]: 30%
pest or weed control at 62 g/ha [5, 17]: 85%
pest or weed control at 125 g/ha [5, 18]: 90%
pest or weed control at 250 g/ha [5, 18]: 100%
pest or weed control at 31 g/ha ([6]; post-emergence, Postemergence, read-out: Plant response rating (scale of 0 to 100), Cocklebur): 90%
pest or weed control at 62 g/ha [6, 19]: 95%
pest or weed control at 125 g/ha [6, 19]: 100%
pest or weed control at 250 g/ha ([6]; post-emergence, Postemergence, scale 0 to 100, read-out: Plant response rating, Cocklebur): 100%
pest or weed control at 31 g/ha [6, 20]: 0%
pest or weed control at 62 g/ha [6, 20]: 60%
pest or weed control at 125 g/ha [6, 21]: 85%
pest or weed control at 250 g/ha [6, 21]: 90%

Source: patent publication US8802597B2, “Herbicidal pyrimidines” (E I du Pont de Nemours and Company, priority 2003, dated 2014)
